SMILES strings stand for the structures.

These results are taken from patent publication US20020009482A1, “Proenergetic food supplement based on NADH, octocosanol and vitamin E” (priority 2000, published 2002).

The nature of the series: Test for the stabilizing activity of Vitamin E on NADH (acid degradation in water at pH 4, 32° C.). It is filed as physicochemical. The settings on record: within 20 minutes. Here is the method: TEST FOR THE STABILIZING ACTIVITY OF VITAMIN E ON NADH Two beakers are prepared containing 50 g of water at a pH 4 and a constant temperature of 32° C. 10 mg of NADH are dissolved in the first beaker and agitate. The effect of the acidity deactivates the NADH, which splits up into NAD+H. Within 20 minutes, 9.5 mg of NADH are split-up, while 0.5 mg remain unchanged. In a second beaker […] of NADH and 5 mg of Vitamin E are dissolved. The effect of the acidity deactivates the NADH, which splits up into NAD+H. Within 20 minutes, 7.5 mg of NADH are split-up, while 2.5 mg of NADH remain unchanged. The parameters of pH 4 and 32° C. for a duration of 20 minutes has been chosen as the food supplement is to be assumed in the morning on an empty stomach, 30 minutes before breakfast. This leads the tablets to easily pass the physiological stomach barrier in 20 minutes, so as reach the first portion of the intestine, where it can be absorbed and enter the blood circulating system.

Where [1] appears, read: 20 mg NADH with 5 mg Vitamin E in 50 g water.

On to `NC(=O)C1=CN([C@@H]2O[C@H](COP(=O)(O)OP(=O)(O)OC[C@H]3O[C@@H](n4cnc5c(N)ncnc54)[C@H](O)[C@@H]3O)[C@@H](O)[C@H]2O)C=CC1` [NADH, nicotinamide adenine dinucleotide in a reduced form], for which, under “10 mg NADH alone in 50 g water”, the NADH remaining unchanged is recorded as 0.5 mg and the “NADH split-up (into NAD+H)” value amounted to 9.5 mg. For the same molecule, under setting [1], the NADH remaining unchanged is 2.5 mg and the “NADH split-up (into NAD+H)” value is given as 7.5 mg.
